{
  "source": "patent US11191736B2",
  "about": "“Pharmaceutical formulations containing cannabidiol and nicotine for treating smokeless tobacco addiction” (CV Sciences, Inc., priority 2016, dated 2021)",
  "key": {"[1]": {"target": "T1, MAO-A enzyme (Homo sapiens, UniProt P21397)", "T1 sequence (P21397 1-527)": "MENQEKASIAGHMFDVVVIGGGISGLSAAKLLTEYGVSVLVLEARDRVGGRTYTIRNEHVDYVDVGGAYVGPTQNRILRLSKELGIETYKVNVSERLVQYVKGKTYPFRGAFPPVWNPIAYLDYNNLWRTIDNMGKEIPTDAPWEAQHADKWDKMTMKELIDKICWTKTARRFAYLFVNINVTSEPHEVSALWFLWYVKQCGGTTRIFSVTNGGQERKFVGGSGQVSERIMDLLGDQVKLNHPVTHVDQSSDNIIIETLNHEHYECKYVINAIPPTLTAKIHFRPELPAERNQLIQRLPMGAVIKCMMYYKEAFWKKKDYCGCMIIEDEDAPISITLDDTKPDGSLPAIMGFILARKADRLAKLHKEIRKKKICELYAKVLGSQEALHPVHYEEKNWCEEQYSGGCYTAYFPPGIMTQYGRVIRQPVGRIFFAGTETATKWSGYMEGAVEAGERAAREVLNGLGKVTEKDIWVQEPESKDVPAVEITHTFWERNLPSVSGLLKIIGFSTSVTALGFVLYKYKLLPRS", "test": "MAO-Glo luminescent assay, MAO-A inhibition", "format": "biochemical", "conditions": "FIG. 1", "excerpt": "(§1) This example describes experiments for determining monoamine oxidase (MAO) inhibition activity for cannabidiol. MAOs are enzymes located on the outer membrane of mitochondria and are involved in the catabolism of monoamine neurotransmitters. There are two well-characterized isoenzymes: MAO-A, which predominantly catabolizes serotonin and norepinephrine, and MAO-B, which preferentially catabolizes benzylamine and phenylethylamine. Dopamine and tyramine are metabolized by both isoforms.\n(§2) To detect the activity of MAO, a luminescent method (MAO-Glo Assay kit, from Promega, Cat #V1401) was used. In this method, a MAO substrate (a derivative of beetle luciferin provided in the kit) is mixed with the compound to be tested (in this case, myosmine and control compounds). Then, the MAO-A or MAO-B enzyme is added to the mixture and incubated with the reaction for 1 hour at room temperature. The MAO enzymes, if not inhibited by the test compound, will convert the substrate into methyl ester luciferin. Finally, a luciferin detection reagent (provided by the kit) is added (20 minutes at room temperature) to stop the MAO reaction and convert methyl ester luciferin into D-luciferin. […] The luminescent signal is measured and recorded using a luminometer."}, "[2]": {"system": "monoamine oxidase (MAO)", "conditions": "Current Drug Safety, 2011, Vol. 6, No. 4; cited from earlier work"}, "[3]": {"target": "T2, MAO-B enzyme (Homo sapiens, UniProt P27338)", "T2 sequence (P27338 1-520)": "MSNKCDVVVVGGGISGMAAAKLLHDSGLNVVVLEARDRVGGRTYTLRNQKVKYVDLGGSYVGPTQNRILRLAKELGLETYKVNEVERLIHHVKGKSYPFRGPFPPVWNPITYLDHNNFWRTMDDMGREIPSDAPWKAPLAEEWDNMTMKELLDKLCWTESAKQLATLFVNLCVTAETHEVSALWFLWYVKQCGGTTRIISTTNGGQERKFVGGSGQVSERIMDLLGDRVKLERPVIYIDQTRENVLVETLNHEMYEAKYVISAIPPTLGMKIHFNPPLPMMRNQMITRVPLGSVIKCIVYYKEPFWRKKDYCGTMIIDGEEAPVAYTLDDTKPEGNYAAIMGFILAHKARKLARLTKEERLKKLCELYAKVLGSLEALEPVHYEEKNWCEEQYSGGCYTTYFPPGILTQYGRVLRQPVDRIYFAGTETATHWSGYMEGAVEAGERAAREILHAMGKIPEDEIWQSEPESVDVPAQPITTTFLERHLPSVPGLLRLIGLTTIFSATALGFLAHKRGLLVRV", "test": "MAO-Glo luminescent assay, MAO-B inhibition", "format": "biochemical", "conditions": "FIG. 2", "excerpt": "as §1, §2"}, "[4]": {"conditions": "at a concentration of 7.5 mM (7,500 micromolar)"}},
  "data": [
    {"compound": "C=C(C)[C@@H]1CCC(C)=C[C@H]1c1c(O)cc(CCCCC)cc1O", "note": "[CBD, 2-[(1R,6R)-3-methyl-6-(1-methylethenyl)-2-cyclohexen-1-yl]-5-pentyl-1,3-benzenediol]", "values": [
      {"measurement": "MAO-A inhibition, result in words", "setting": "[1]; compared with nornicotine", "result": "potent inhibitor of MAO-A, in fact to an even greater extent than nornicotine"},
      {"measurement": "inhibition at 7500 µM", "setting": "[1]; [4]", "result": "~50", "unit": "%"},
      {"measurement": "inhibiting monoamine oxidase (MAO) activity, prior report", "setting": "[2]", "result": "ineffective"},
      {"measurement": "MAO-B inhibition, result in words", "setting": "[3]; compared with MAO-A activity", "result": "also inhibits MAO-B activity, although to a lesser extent than MAO-A activity"},
      {"measurement": "inhibition at 7500 µM", "setting": "[3]; [4]", "result": "~30", "unit": "%"}
    ]}
  ]
}
